What was measured:
Type in all cases: in vivo
[1] = system: human subjects with stage 3 or stage 4 chronic kidney disease; test: MCV in stage 3 and stage 4 chronic kidney disease patients, 4 weeks; conditions: stage 3/4 CKD
Experimental: In another series of experiments, the effect of a compound of the present invention on MCV was determined in stage 3 and stage 4 chronic kidney disease patients ([…]) as follows. Subjects with stage 3 or stage 4 chronic kidney disease were administered placebo or Compound A (1.5 mg/kg or 2.0 mg/kg) twice or thrice weekly for 4 weeks. MCV values were measured weekly.

[2] = system: human subjects with stage 3 or stage 4 chronic kidney disease; test: MCV in stage 3 and stage 4 chronic kidney disease patients not receiving dialysis, fixed dose, 17 weeks; conditions: fixed dose 50 mg or 100 mg twice weekly for 17 weeks, dose adjustments from week 5; stage 3/4 CKD not on dialysis
Experimental: In another set of experiments, the effect of compound of the present invention on MCV was determined in human subjects with stage 3 and stage 4 chronic kidney disease patients (eGFR<60 ml/min) as follows. Subjects with stage 3 or stage 4 chronic kidney disease not receiving dialysis were administered Compound A at a fixed dose of either 50 mg or 100 mg twice weekly for a period of 17 weeks. Dose adjustments were permitted from week 5 onward to correct and maintain subjects to a target hemoglobin range; however, doses were not allowed to exceed 2.2 mg/kg per dose. MCV values were measured weekly.

[3] = system: human patients, particularly having chronic kidney disease; test: Overall safety and efficacy of tested doses in human patients; conditions: 0.7 to 2.5 mg/kg administered TIW, BIW, or QW
Excerpt: In particular embodiments, the present invention provides an efficacious therapeutic compound for treating a human subject having reduced mean corpuscular volume (MCV). In one embodiment, the invention comprises the compound [(4-hydroxy-1-methyl-7-phenoxy-isoquinoline-3-carbonyl)-amino]-acetic acid for use in methods of increasing mean corpuscular volume (MCV) in a human subject.

[4] = system: human subjects with end-stage renal disease; test: Mean hemoglobin levels in human subjects with end-stage renal disease, 6 week treatment; conditions: TIW; Compound A 1.5 mg/kg and 2.0 mg/kg or epoetin alfa; ESRD
[5] = system: human subjects with end-stage renal disease; test: Mean corpuscular volume (MCV) in human subjects with end-stage renal disease on hemodialysis, 6 weeks TIW, no IV iron; conditions: ESRD; for Mean Change from Baseline MCV at Day 43 (6 weeks) of Treatment: no IV iron; for MCV response following administration for six weeks (Table 1, in words): TIW for 6 weeks, Compound A 1.0, 1.5, 2.0 mg/kg or standard of care epoetin alfa; for Change from baseline of mean MCV over time during the 6 week treatment period (FIG. 1): TIW, Compound A 1.0, 1.5 or 2.0 mg/kg or epoetin alfa
Experimental: The effect of a compound of the present invention on MCV was determined in human subjects with end-stage renal disease as follows. Subjects had been receiving stable maintenance hemodialysis for at least 4 months prior to the initiation of the present study. Additionally, subjects had been maintained on standard of care stable doses of epoetin alfa for the treatment of anemia prior to initiation of the study described herein.
In order to examine differences in the MCV response in subjects treated with a compound of the invention compared to the MCV response in subjects treated with epoetin alpha (the current standard of care), all IV iron supplementation was halted two weeks prior to treatment initiation. Administration of oral iron was allowed.
[…] Baseline MCV levels were determined prior to treatment (mean of two screening period measurements with the Day 1 measurement). MCV levels were measured weekly throughout the 6-week study period.

Row | Compound | Mean MCV over time (FIG. 3) ([1]; 1.5 mg/kg or 2.0 mg/kg twice or thrice weekly for 4 weeks) | Mean change from baseline MCV at Day 22 (FIG. 4) ([1]; 1.5 mg/kg or 2.0 mg/kg twice or thrice weekly, increase) | Mean MCV over time (FIG. 5) [2] | Efficacy of tested doses (increases in MCV) [3] | Safety of tested doses [3] | Changes in mean hemoglobin levels during the 6 week treatment period (FIG. 2) [4] | Mean Change from Baseline MCV at Day 43 (6 weeks) of Treatment ([5]; 1 mg/kg TIW, N = 10) | Mean increase in MCV over baseline after 6 weeks of treatment ([5]; 1.3 mg/kg TIW, N=5) [fL] | Mean Change from Baseline MCV at Day 43 (6 weeks) of Treatment ([5]; 1.5 mg/kg TIW, N = 9) | Mean increase in MCV over baseline after 6 weeks of treatment ([5]; 1.8 mg/kg TIW, N=12) [fL] | Mean Change from Baseline MCV at Day 43 (6 weeks) of Treatment ([5]; 2.0 mg/kg TIW, N = 9) | MCV response following administration for six weeks (Table 1, in words) [5] | Change from baseline of mean MCV over time during the 6 week treatment period (FIG. 1) [5] | Mean Change from Baseline MCV at Day 43 (6 weeks) of Treatment ([5]; standard of care doses TIW, N = 10) [fL]
1 | Cc1nc(C(=O)NCC(=O)O)c(O)c2ccc(Oc3ccccc3)cc12 [Compound A, [(4 hydroxy-1-methyl-7-phenoxy-isoquinoline-3-carbonyl)-amino]-acetic acid] | mean MCV increased over time | greater than 3 fL | mean MCV initially increased and then stabilized over time | effective | safe | time-dependent increase in mean hemoglobin levels | +0.90 fL | 2.03 | +1.46 fL | 2.27 | +2.50 fL | MCV increased in a dose-dependent manner | resulted in an increase in mean MCV over time | –
2 | Epoetin alfa: erythropoiesis-stimulating agent; current standard of care for anemia, used as control [reference compound] | – | – | – | – | – | did not result in an increase hemoglobin levels | – | – | – | – | – | showed decreases in MCV | no increase in mean MCV occurred | -0.12
